The test system of one data set is Hepatitis C virus. Nature of the data set: Antiviral activity against HCV in Huh-5-2 cells by replicon assay. The class given is functional, organism-based, Hepacivirus hominis. (A replicon is a self-replicating genome or part of one, used to study replication in cells.)
The test system of the next data set is Hepacivirus hominis. Nature of the data set: Ratio of EC50 of HCV to IC50 for HCV NS5B polymerase.
A short description of data set [1]: Inhibition of HCV NS5B polymerase. Further details: species or system Hepacivirus hominis.
Data set [2] in a line: Cytotoxicity against Huh-5-2 cells. The class given is cell-based. The settings on record: human.

Some results are limits rather than exact numbers.

As to `O=C(O)c1ccc2c(c1)nc(-c1ccc(OCc3cc(N4CCCC4=O)ccc3Oc3ccc(Cl)cc3)cc1F)n2C1CCCCC1`, the EC50 in the data set with Hepatitis C virus came out at 3100 nM. The Ratio in the data set on Hepacivirus hominis was 13. Moreover, the IC50 in data set [1] is 230 nM. In data set [2], the CC50 is over 20000 nM.
For `CC(=O)N1CCN(c2ccc(N3CCCC3=O)cc2COc2ccc(-c3nc4cc(C(=O)O)ccc4n3C3CCCCC3)c(F)c2)CC1` the same measures were 950 nM, 8.6, 110 nM and over 20000 nM.
On to `O=C(O)c1ccc2c(c1)nc(-c1ccc(OCc3ccccc3N3CCOCC3)cc1F)n2C1CCCCC1`, for which, in the data set on Hepatitis C virus, the EC50 stood at 1000 nM. In addition, the Ratio in the data set with Hepacivirus hominis came out at 7.7. The molecule also showed a 50% inhibitory concentration (IC50) in data set [1] of 130 nM. The CC50 in data set [2] was over 20000 nM.
`CC(=O)N(c1ccc(N2CCOCC2)c(COc2ccc(-c3nc4cc(C(=O)O)ccc4n3C3CCCCC3)c(F)c2)c1)C(C)C`: the response in the data set on Hepatitis C virus was half-maximal at 270 nM (EC50). Also, the Ratio in the data set with Hepacivirus hominis worked out at 6.4. In data set [1], this molecule displayed an IC50 of 42 nM. In data set [2], this molecule displayed a CC50 of over 20000 nM.
In the data set on Hepatitis C virus, `Cn1c(-c2ccc(OCc3cc(N4CCCC4=O)ccc3N3CCOCC3)cc2)c(C2CCCCC2)c2ccc(C(=O)O)cc21` gave an EC50 of 52 nM. Further, in the data set with Hepacivirus hominis, the Ratio stood at 7.2. Moreover, the IC50 in data set [1] was 7.2 nM. Further, in data set [2], the CC50 is over 20000 nM.
In the data set on Hepatitis C virus, `O=C(O)c1ccc2c(C3CCCCC3)c3n(c2c1)CCOc1cc(OCc2cc(N4CCCC4=O)ccc2-c2ccc(Cl)cc2)ccc1-3` yielded an EC50 of 60 nM. In the data set on Hepacivirus hominis, the Ratio amounted to 3.1. For the same molecule, the IC50 in data set [1] was found to be 19 nM. This molecule also had a CC50 in data set [2] of over 20000 nM.
For `O=C(O)c1ccc2c(c1)nc(-c1ccc(OCc3cc(N4CCCC4=O)ccc3N3CCC(O)CC3)cc1F)n2C1CCCCC1`, a half-maximal response with Hepatitis C virus (EC50) required 1400 nM. Also, in the data set on Hepacivirus hominis, the Ratio stood at 9.3. The molecule also had an IC50 in data set [1] of 150 nM. This molecule came in with a cytotoxic concentration (CC50) in data set [2] of over 20000 nM.
On the same counts, the results for `CC(=O)Nc1ccc(N2CCOCC2)c(COc2ccc(-c3nc4cc(C(=O)O)ccc4n3C3CCCCC3)c(F)c2)c1` are 910 nM, 13, 70 nM and over 20000 nM.
In the case of `O=C(O)c1ccc2c(c1)nc(-c1ccc(OCc3cc(Cl)ccc3N3CCOCC3)cc1F)n2C1CCCCC1`, the EC50 in the data set with Hepatitis C virus was 1200 nM. Also, the Ratio in the data set on Hepacivirus hominis was 12. For the same molecule, in data set [1], half-maximal inhibition (IC50) required 100 nM. This molecule also came in with a CC50 in data set [2] of over 20000 nM.
`O=C(O)c1ccc2c(c1)nc(-c1ccc(OCc3cc(N4CCCC4=O)ccc3N3CCCCC3)cc1F)n2C1CCCCC1` had a half-maximal effective concentration (EC50) with Hepatitis C virus of 800 nM. In addition, the Ratio in the data set with Hepacivirus hominis is 5.3. The molecule also registered a half-inhibitory concentration (IC50) in data set [1] of 150 nM. Besides, the CC50 in data set [2] is over 20000 nM.
For `CC(C)NC(=O)c1ccc(N2CCOCC2)c(COc2ccc(-c3nc4cc(C(=O)O)ccc4n3C3CCCCC3)c(F)c2)c1`, the midpoint of the response with Hepatitis C virus, the EC50, lay at 380 nM. In addition, the Ratio in the data set on Hepacivirus hominis was found to be 7.9. In data set [1], this molecule gave an IC50 of 48 nM. Further, the cytotoxic concentration (CC50) in data set [2] is over 20000 nM.
As to `CN(C)C(=O)c1ccc(N2CCOCC2)c(COc2ccc(-c3nc4cc(C(=O)O)ccc4n3C3CCCCC3)c(F)c2)c1`, in the data set with Hepatitis C virus, the midpoint of the response, the EC50, lay at 440 nM. Moreover, the Ratio with Hepacivirus hominis is 6.5. This molecule gave an IC50 in data set [1] of 68 nM. Further, in data set [2], the CC50 is over 20000 nM.
Molecule `COc1ccc(N2CCCC2=O)cc1COc1ccc(-c2nc3cc(C(=O)O)ccc3n2C2CCCCC2)c(F)c1` returned an EC50 in the data set on Hepatitis C virus of 1400 nM. Further, the Ratio in the data set with Hepacivirus hominis was 3.4. The same molecule returned an IC50 in data set [1] of 410 nM. Further, the CC50 in data set [2] is over 20000 nM.
`O=C(O)c1ccc2c(c1)nc(-c1ccc(OCc3cc(N4CCCS4(=O)=O)ccc3N3CCOCC3)cc1F)n2C1CCCCC1` came in with an EC50 in the data set with Hepatitis C virus of 550 nM. The Ratio with Hepacivirus hominis stood at 7.7. In data set [1], this molecule came in with an IC50 of 71 nM. The molecule further returned a cytotoxic concentration (CC50) in data set [2] of over 20000 nM.
In the case of `O=C(O)c1ccc2c(c1)nc(-c1ccc(OCc3cc(N4CCCC4=O)ccc3N3CCC(C(=O)O)CC3)cc1F)n2C1CCCCC1`, the concentration giving a half-maximal response (EC50) with Hepatitis C virus is 3500 nM. Further, the Ratio in the data set with Hepacivirus hominis was determined as 19. The same molecule came in with an IC50 in data set [1] of 180 nM. In addition, the 50% cytotoxic concentration (CC50) in data set [2] was over 20000 nM.
In turn, `O=C(O)c1ccc2c(c1)nc(-c1ccc(OCc3cc(N4CCCC4=O)ccc3N3CCOCC3)cc1F)n2C1CCCCC1` returned an EC50 with Hepatitis C virus of 310 nM. Also, the Ratio in the data set on Hepacivirus hominis is 4.7. The molecule further yielded an IC50 in data set [1] of 66 nM. In addition, in data set [2], the CC50 was over 20000 nM.
`O=C(O)c1ccc2c(c1)nc(-c1ccc(OCc3cc(N4CCCCC4=O)ccc3N3CCOCC3)cc1F)n2C1CCCCC1`: in the data set on Hepatitis C virus, the EC50 was 580 nM. The Ratio in the data set with Hepacivirus hominis stood at 6.4. For the same molecule, in data set [1], half-maximal inhibition (IC50) was put at 90 nM. The molecule further came in with a CC50 in data set [2] of over 20000 nM.
In the case of `COCCN(C)c1ccc(N2CCCC2=O)cc1COc1ccc(-c2nc3cc(C(=O)O)ccc3n2C2CCCCC2)c(F)c1`, a half-maximal response in the data set with Hepatitis C virus (EC50) required 1300 nM. Besides, the Ratio in the data set on Hepacivirus hominis was 5. In data set [1], this molecule came in with an IC50 of 260 nM. Also, the CC50 in data set [2] was over 20000 nM.
As for `COCC(=O)N(C)c1ccc(N2CCOCC2)c(COc2ccc(-c3nc4cc(C(=O)O)ccc4n3C3CCCCC3)c(F)c2)c1`, in the data set on Hepatitis C virus, the EC50 came to 1200 nM. The Ratio in the data set with Hepacivirus hominis worked out at 12. The molecule further had an IC50 in data set [1] of 99 nM. In data set [2], this molecule came in with a CC50 of over 20000 nM.
For `O=C(O)c1ccc2c(C3CCCCC3)c3n(c2c1)CCOc1cc(OCc2cc(N4CCCC4=O)ccc2N2CCOCC2)ccc1-3` the same measures were 7.6 nM, 1.1, 7.2 nM and over 20000 nM.
The molecule `CC(=O)N(C)c1ccc(N2CCOCC2)c(COc2ccc(-c3nc4cc(C(=O)O)ccc4n3C3CCCCC3)c(F)c2)c1` displayed an EC50 in the data set with Hepatitis C virus of 370 nM. In addition, the Ratio with Hepacivirus hominis worked out at 7.3. This molecule also showed a half-maximal inhibitory concentration (IC50) in data set [1] of 51 nM. This molecule gave a 50% cytotoxic concentration (CC50) in data set [2] of over 20000 nM.
With `O=C(O)c1ccc2c(c1)cc(-c1ccc(OCc3cc(N4CCCC4=O)ccc3N3CCOCC3)cc1)n2C1CCCCC1`, in the data set with Hepatitis C virus, the midpoint of the response, the EC50, lay at 210 nM. The Ratio in the data set on Hepacivirus hominis stood at 7. The IC50 in data set [1] was 30 nM. In data set [2], this molecule displayed a CC50 of over 20000 nM.
`O=C(O)c1ccc2c(c1)nc(-c1ccc(OCc3cc(N4CCCC4=O)ccc3N3CCOCC3=O)cc1F)n2C1CCCCC1` displayed an EC50 in the data set on Hepatitis C virus of over 30000 nM. In the data set on Hepacivirus hominis, the Ratio is over 30. In addition, the midpoint of inhibition in data set [1], the IC50, lay at 1000 nM. In data set [2], this molecule returned a CC50 of over 20000 nM.
With `O=C(O)c1ccc2c(c1)nc(-c1ccc(OCc3cc(N4CCCC4=O)ccc3-c3ccc(Cl)cc3)cc1F)n2C1CCCCC1`, the Ratio in the data set on Hepacivirus hominis worked out at 19. Besides, the CC50 in data set [2] was over 20000 nM.
`CN1CCN(c2ccc(N3CCCC3=O)cc2COc2ccc(-c3nc4cc(C(=O)O)ccc4n3C3CCCCC3)c(F)c2)CC1` displayed an EC50 in the data set with Hepatitis C virus of 1100 nM. In addition, the Ratio in the data set on Hepacivirus hominis is 8.5. In data set [1], this molecule came in with an IC50 of 130 nM. In data set [2], this molecule yielded a CC50 of over 20000 nM.

One may read the EC50 as the concentration at which the effect is half-maximal. What is called IC50 is the concentration at which inhibition is half-maximal. One may read the CC50 as the concentration that lowers cell viability or growth by half. Read a low CC50 as greater toxicity to the cells.

Values taken from ChEMBL document CHEMBL1139907, “Further studies on hepatitis C virus NS5B RNA-dependent RNA polymerase inhibitors toward improved replicon cell activities: benzimidazole and structurally related compounds bearing the 2-morpholinophenyl moiety” (Bioorg Med Chem Lett, 2007).
